Results taken from patent US12036262B2, “Edible plant-derived nanoparticles for regulation of gut microbiota” (University of Louisville Research Foundation, Inc., priority 2017, dated 2024).

Tests used:
[1] = tested on: Lactobacillus rhamnosus GG (LGG); assay: LGG proliferation in culture (OD600); type: cell-based; conditions: compared with scrambled miRNA
Protocol: Bacteria. Lactobacillus rhamnosus (LGG) was obtained from ATCC® (Catalog No. 53103). The SpaC-deleted LGG was cultured in Lysogeny broth (LB; ISC BioExpress, Kaysville, Utah, United States of America) at 37° C. Ruminococcaceae sp. (ATCC® Catalog No. TSD-27) was grown in GS2+cellobiose medium (Biddle et al., 2013). Listeria monocytogenes (Listeria; ATCC® Catalog No. 15313) and Bacteroides fragilis (Fragilis, NCTC 9343) were cultured in brain heart infusion (BHI) broth (Hardy Diagnostics, Santa Maria, California, United States of America) as described in Zhang & Wang, 2015 and Deng et al., 2015, respectively. LGG was grown in MRS broth media at 37° C. in anaerobic conditions for 14-16 hours to an OD600 of 0.8-1.0. Bacterial viability and concentration were checked by MRS agar platting. Cultures were centrifuged and the bacterial pellet was diluted in MRS for in vitro experiments and in PBS for gavaging at 10^9 CFU/mouse per day.

SpaC [2] = assay: SpaC expression in LGG (qPCR, Western blotting); type: cell-based, Lactobacillus rhamnosus; conditions: compared with scrambled miRNA
Protocol: Quantitative Real-Time PCR for RNA Expression. The quantity of mature miRNAs was determined with quantitative real-time PCR (qPCR) using a miScript II RT kit (QIAGEN Inc., Germantown, Maryland, United States of America) and miScript SYBR Green PCR Kit (QIAGEN) with QIAGEN 3′ universal primers. For analysis of gene mRNA expression, 1 μg of total RNA was reverse transcribed using SuperScript III reverse transcriptase (Invitrogen, Waltham, Massachusetts, United States of America), and quantitation was performed using SsoAdvanced™ Universal SYBR Green Supermix (Bio-Rad Laboratories, Inc., Hercules, California, United States of America) and the listed primers (Table 1) with SsoAdvanced™ Universal SYBR Green Supermix (Bio-Rad). qPCR was performed using a Bio-Rad CFX96 qPCR System with each reaction run in triplicate. Analysis and fold-changes were determined using the comparative threshold cycle (Ct) method. Changes in miRNA or mRNA expression were calculated as fold-change.
Western Blotting. LGG cells were treated as indicated in each individual Figure and harvested from 100-350 ml cultures by centrifugation at 5,000×g for 10 minutes. […] After the Alexa Fluor-647 (Invitrogen) conjugated secondary antibody incubation, the bands were visualized and analyzed using an Odyssey Imager (LI-COR, Lincoln, Nebraska, United States of America). […]

SpaC [3] = assay: Immunogold labeling of LGG pili and TEM; type: cell-based, Lactobacillus rhamnosus; conditions: compared with PBS or scrambled miRNA
Protocol: Immunogold Labeling of LGG Pili and TEM. To visualize LGG pili via transmission electron microscopy (TEM), LGG cultures were grown overnight (OD600<1.0) and washed once with PBS. Formvar-carbon-coated copper grids (Electron Microscopy Sciences, Hatfield, Pennsylvania, United States of America) first were floated for 1 hour on droplets of the diluted LGG at 10^7/mL in PBS, washed several times with 0.02 M glycine in PBS, and then treated with a blocking solution of 1% bovine serum albumin (BSA) in PBS. The grids were then floated for 1 hour on droplets of anti-SpaC serum (1:100) in blocking solution. After a wash with 0.1% BSA in PBS, the grids were incubated for 20 minutes with protein A-conjugated 10-nm-diameter gold particles (Cytodiagnostics, Burlington, Ontario, Canada) diluted 1:55 in blocking solution. After one wash in PBS, the grids were fixed with 1% glutaraldehyde, washed with distilled water, and then stained with 1% ammonium molybdate on the surface of the EM grid. After excess ammonium molybdate was removed from the grid, images were visualized using a Thermo-Fisher TEM Tecnai Spirit at 80 kV, and images were collected with an AMT XR60 digital camera.

**Q.** Which “growth of SpaC^del LGG” value [1] does the source give for “ath-miR167a: GELN miRNA, SEQ ID NO: 9 (UGAAGCUGCCAGCAUGAUCUA; expressed or natural sequence)” here?
**A.** Its value is “no effect”.

**Q.** And the “SpaC expression in LGG” value (SpaC [2])?
**A.** The value was “significantly down-regulated”.

**Q.** What about the “SpaC protein on pili of LGG (TEM)” value (SpaC [3]) of the same substance?
**A.** Its value is “much less SpaC protein could be detected on pili”.
